Usually EC50 stands for the midpoint of the concentration-response curve. Read a low EC50 as an effect from little substance.

For this assay, the system named is Human platelet-rich plasma (blood platelets). As to the kind of experiment: Collagen-induced blood platelet aggregation (aggregometer method of Born; maximum aggregation velocity). In kind it is cell-based. Conditions: human citrated platelet-rich plasma, 10 min preincubation at 37° C., collagen fibrils. As for the experimental part:
The maximum aggregation velocity was taken as the test parameter and the effective concentration (EC50) was ascertained from dosage-activity curves.
Human platelet-rich plasma was obtained by centrifugation from citrated venous blood. The experiments were carried out with suspensions of the test substances in 0.9% sodium chloride. 0.18 ml of citrate plasma was treated with a 10 μl suspension of the test compound and incubated at 37° C. for 10 minutes, whereupon the aggregation was initiated by adding 10 μl of a suspension of collagen fibrils.
Take `CC(C)(C)c1nc(-c2ccc3c(c2)OCO3)[nH]c1C(C)(C)C` [4,5-di-t-butyl-2-(3,4-methylenedioxyphenyl)-imidazole]: the EC50 came to 550 nM. Under `CC(C)(C)c1nc(-c2ccc(F)cc2)[nH]c1C(C)(C)C` [4,5-Di-t-butyl-2-(4-fluorophenyl)-imidazole] stands 500 nM. Turning to `COc1cc(-c2nc(C(C)(C)C)c(C(C)(C)C)[nH]2)cc2c1OCO2` [4,5-di-t-butyl-2-(5-methoxy-3,4-methylenedioxyphenyl)-imidazole], a half-maximal effect (EC50) was put at 14400 nM. The same measure for `COc1cc(-c2nc(C(C)(C)C)c(C(C)(C)C)[nH]2)cc(OC)c1OC` [4,5-di-t-butyl-2-(3,4,5-trimethoxyphenyl)-imidazole]: 720 nM; for `CC(C)(C)c1nc(-c2ccccc2)[nH]c1C(C)(C)C` [4,5-Di-t-butyl-2-phenylimidazole, 4,5-di-t-butyl-2-phenylimidazole]: 600 nM.

The values are drawn from patent US4582844A, “Antithrombotic 4,5 di-t-butyl-imidazole derivatives” (Hoffmann-La Roche Inc., priority 1980, dated 1986).
